What was measured:
[1] = target: T1, lysosomal acid lipase (LAL) (Homo sapiens, UniProt P38571); assay: Previous fluorometric LAL assay (Hamilton et al.) with palmitoyl-4MU with and without Lalistat-2 in DBS; assay type: biochemical
T1 construct: from tissue; host or cells: dried blood spots (DBS) from healthy adults, healthy children and LAL-deficient patients
T1 sequence (P38571 77-399): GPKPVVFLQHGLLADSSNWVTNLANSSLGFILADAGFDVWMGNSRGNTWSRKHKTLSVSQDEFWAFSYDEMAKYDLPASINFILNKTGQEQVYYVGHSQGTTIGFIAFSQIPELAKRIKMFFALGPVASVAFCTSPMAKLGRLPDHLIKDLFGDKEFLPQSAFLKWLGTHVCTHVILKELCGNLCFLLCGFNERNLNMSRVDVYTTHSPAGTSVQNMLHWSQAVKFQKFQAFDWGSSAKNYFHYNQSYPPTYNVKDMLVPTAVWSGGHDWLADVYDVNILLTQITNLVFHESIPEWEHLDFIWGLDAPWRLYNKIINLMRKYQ
From the text: LAL is detected in leukocytes or fibroblasts using radiometric, immunologic, or fluorescence assays (The metabolic and molecular bases of inherited disease. 8th Ed. New York (NY): McGraw-Hill; 2001. p. 3827-3387). Hamilton and colleagues recently developed a fluorometric assay to detect LAL in dried blood spots (DBS) (Hamilton et al., Clin Chim Acta 2012; 413:1207-10). The assay is based on the release of 4-methylumbelliferone from its ester with palmitic acid. However, the substrate is not specific for LAL, and the method requires two assays performed in parallel, the first in the presence of a LAL-specific covalent inactivator Lalistat-2. LAL activity is calculated from the difference in these 2 assays.
A concentration of P-PMHC in the mixture of 3 mmol/L was settled on based on a combination of high LAL activity and minimal background. The original assay described by Hamilton et al. (Clin Chim Acta 2012; 413:1207-10) used 40 μL of an aqueous extract of a 3-mm DBS added to 160 μL of assay mixture. To keep the solvent volumes for the liquid-liquid extraction to a minimum, thus avoiding long times for solvent removal, 10 μL of an aqueous extract of a 3-mm DBS punch was added to 30 μL of assay mixture.

[2] = target: T1, lysosomal acid lipase (LAL); assay: Testing potential LAL substrates with DBS; assay type: biochemical
Procedure: Compound 8. Assay cocktail contained 0.69 mM Compound 8, 10 mM internal standard (analog of the product containing an n-hexanoyl amide tail instead of the n-pentanoyl amide tail) in 0.15 M sodium acetate, pH 4.02, containing 0.1% Triton X-100. Assay cocktail (30 mL) was added to a 3 mm DBS punch from a normal adult and 10 mL of 30 mM aqueous Lalistat-2 or H2O was added, and the mixture was incubated at 37° C. for 16 hr in an Eppendorf tube with orbital shaking at 250 rpm. The assay was quenched by addition of 120 mL of acetonitrile. The sample was centrifuged for 5 min at 3000×g, and 120 mL of supernatant was transferred to an autosampler plate. Water (60 mL) was added to the well, and 10 mL was injected for UPLC-MS/MS. Compound 8 product was analyzed by UPLC-MS/MS using the authentic product as a standard to establish UPLC and MS/MS conditions.
Compound 9. Assay cocktail contained 0.3 mM Compound 9 (from a 10 mM DMSO stock) in a 14:1 solution of 0.15 M sodium acetate pH 4.0 1% Triton-X-100 and 0.5% m/v cardiolipin in methanol. […] Compound 9 product was analyzed by UPLC-MS/MS using the authentic product as a standard to establish UPLC and MS/MS conditions.
Compounds 10-13. […] Samples were immediately read on a plate-reader fluorometer with an excitation wavelength of 355 nm and emission wavelength of 460 nm. […]

Molecule	specific activity for the LAL component ([1]; 3-mm punch from an identical DBS, previous fluorometric assay with and without Lalistat-2)	fold lower than the activity measured with the UPLC-MS/MS assay ([1]; 466 versus 874 μmol/h/L, identical DBS)	fraction of the substrate hydrolyzed by esterases/lipases in DBS other than LAL ([1]; DBS)	detectable LAL activity when tested with DBS [2]
CCCCCCCCCCCCCCCC(=O)Oc1ccc2c(C)cc(=O)oc2c1 [palmitoyl-4MU]	466 µmol/h/L	1.9 fold	about one third	displayed measurable LAL activity
4-propyl-8-methyl-7-palmitoyloxycoumarin [Compound 1]				None of these compounds displayed detectable LAL activity
